# Experimental data: paper PMC7904743, “WIDOCK: a reactive docking protocol for virtual screening of covalent inhibitors” (Journal of Computer-Aided Molecular Design, 2021)
# Where two headings read alike, the source gives them in different places.
# How the values were obtained:
# CatB [1] = target: T1, CatB (Homo sapiens, UniProt P07858); experiment: CatB single point enzyme activity assay (residual activity); conditions: read-out: RA
# Protocol: (§1) These fragments were measured in single point enzyme activity assays at 100 μM concentration against MurA and CatB.
# [2] = cited from earlier work
# [3] = target: T2, Recombinant human microsomal MAO-A (Homo sapiens, UniProt P21397); experiment: MAO-A activity assay (fluorimetric, Amplex Red, p-tyramine); format: biochemical; conditions: for RA: MAO-A residual activity, active if lower than 60%; for MAO-A inhibition (experimental): MAO-A inhibitory assay
# T2 construct: purchased Sigma Aldrich; host or cells: baculovirus infected insect cells (BTI-TN-5B1-4)
# T2 sequence (P21397 1-527): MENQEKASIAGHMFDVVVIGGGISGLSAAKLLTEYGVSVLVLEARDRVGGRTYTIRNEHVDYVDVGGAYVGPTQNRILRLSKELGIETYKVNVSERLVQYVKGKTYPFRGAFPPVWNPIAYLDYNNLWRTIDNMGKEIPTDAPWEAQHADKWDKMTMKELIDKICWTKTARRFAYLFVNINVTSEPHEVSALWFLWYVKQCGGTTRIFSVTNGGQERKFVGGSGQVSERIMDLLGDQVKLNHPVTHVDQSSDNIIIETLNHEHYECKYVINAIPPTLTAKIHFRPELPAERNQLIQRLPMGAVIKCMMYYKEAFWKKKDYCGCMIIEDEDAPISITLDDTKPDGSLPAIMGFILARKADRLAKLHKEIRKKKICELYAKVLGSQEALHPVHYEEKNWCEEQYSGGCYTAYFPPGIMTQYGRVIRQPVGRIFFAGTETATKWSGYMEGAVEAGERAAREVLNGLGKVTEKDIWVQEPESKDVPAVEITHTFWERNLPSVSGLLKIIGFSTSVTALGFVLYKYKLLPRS
# Protocol: The effects of the test compounds on MAO-A were investigated using a fluorimetric assay, following a previously described methodology. The inhibitory activity of the compounds was evaluated by their effects on the production of hydrogen peroxide (H2O2) from p-tyramine. The production of H2O2 was detected using Amplex Red reagent in the presence of horseradish peroxidase, where a highly sensitive fluorescent product, resorufin, is produced at stoichiometric amounts. Recombinant human microsomal MAO-A enzyme expressed in baculovirus infected insect cells (BTI-TN-5B1-4), horse-radish peroxidase (type II, lyophilized powder), and p-tyramine hydrochloride were obtained from Sigma Aldrich. 10-Acetyl-3,7-dihydroxyphenoxazine (Amplex Red reagent) was synthesized as described in the literature.
# Briefly, 100 µL 50 mM sodium phosphate buffer (pH 7.4, 0.05% Triton X-114) containing the compounds and MAO-A were incubated for 30 min at 37 °C in a flat-bottomed black 96-well microplate, and placed in a dark microplate reader chamber. After the pre-incubation, the reaction was started by adding the final concentrations of 200 µM Amplex Red reagent, 2 U/mL horseradish peroxidase, and 1 mM p-tyramine (final volume, 200 µL). The production of resorufin was quantified based on the fluorescence generated (λex = 530 nm, λem = 590 nm) at 37 °C over a period of 30 min, during which time the fluorescence increased linearly. For control experiments, DMSO was used instead of the appropriate dilutions of the compounds in DMSO. To determine the blank value (b), phosphate-buffered solution replaced the enzyme solution. The initial velocities were calculated from the trends obtained, with each measurement carried out in duplicate. The specific fluorescence emission to obtain the final result was calculated after subtraction of the blank activity (b).
# CatB [4] = target: T1, CatB; design: method as in PMID 30321804; conditions: cited from earlier work; for CatB RA (%): residual activity at 100 μM, single point
# [5] = Kinetic measurement of adduct formation with L-glutathione (GSH) by HPLC–MS; format: physicochemical; design: unit not given here
# Protocol: Electrophilic fragments tested against MurA, CatB and MAO-A (25–53, structures shown in Supporting Figure S2 and SMILES provided in Supporting Table S1) represent eight different warhead chemotypes reacting via two reaction mechanisms: Michael-type nucleophilic addition and nucleophilic substitution. The intrinsic thiol reactivities (see Table 1) were determined by kinetic measurement of adduct formation with L-glutathione (GSH), a widely used cysteine surrogate, by an HPLC–MS methodology, as described in the referred study.
# MurA [6] = target: T3, MurA (Escherichia coli, UniProt P0A749); conditions: cited from earlier work; for experimental activity class against MurA: < 60% residual activity at 100 μM considered active; for MurA RA (%): residual activity at 100 μM, single point
# MurA [7] = target: T3, MurA; experiment: biochemical; conditions: read-out: RA
# Protocol: as §1
# [8] = half-life of adduct formation with L-glutathione
# T3 sequence (P0A749 whole entry): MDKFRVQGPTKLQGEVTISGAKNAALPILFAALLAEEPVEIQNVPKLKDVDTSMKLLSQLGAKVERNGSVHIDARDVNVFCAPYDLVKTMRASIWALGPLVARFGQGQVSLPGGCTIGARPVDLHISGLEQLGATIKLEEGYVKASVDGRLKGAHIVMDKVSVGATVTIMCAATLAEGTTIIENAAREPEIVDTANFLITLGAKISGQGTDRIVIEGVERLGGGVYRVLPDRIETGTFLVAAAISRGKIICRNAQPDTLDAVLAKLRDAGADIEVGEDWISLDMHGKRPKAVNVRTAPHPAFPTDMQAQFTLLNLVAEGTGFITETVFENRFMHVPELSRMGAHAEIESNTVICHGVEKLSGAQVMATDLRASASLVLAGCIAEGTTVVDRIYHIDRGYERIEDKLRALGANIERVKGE
compound,measurement,setting,value
"COc1ccccc1C(=O)CBr [Compound 46, COc1ccccc1C(=O)CBr]",remaining activity at 100 µM,CatB [1],55%
same,GSH half-life,[2]; [8],< 0.1 h
same,RA,[3],39%
same,experimental activity class against CatB,CatB [4]; < 60% residual activity at 100 μM considered active,experimental actives
same,CatB RA (%),CatB [4],55%
same,"Reactivity, Experimental ln(k) vs GSH",[5],1.936
same,experimental activity class against MurA,MurA [6],experimental MurA actives
same,MurA RA (%),MurA [6],3%
same,remaining activity at 100 µM,MurA [7],3%
"CCOC(=O)C#Cc1ccccc1 [Compound 36, CCOC(=O)C#Cc1ccccc1]",remaining activity at 100 µM,CatB [1],70%
same,GSH half-life,[2]; [8],4.66 h
same,RA,[3],94%
same,CatB RA (%),CatB [4],70%
same,"Reactivity, Experimental ln(k) vs GSH",[5],-1.906
same,MurA RA (%),MurA [6],75%
same,remaining activity at 100 µM,MurA [7],75%
"CC(C)(C)OC(=O)N1CC=CC1=O [Compound 42, CC(C)(C)OC(=O)N1CC=CC1=O]",remaining activity at 100 µM,CatB [1],85%
same,GSH half-life,[2]; [8],161 h
same,RA,[3],47%
same,CatB RA (%),CatB [4],85%
same,"Reactivity, Experimental ln(k) vs GSH",[5],-5.449
same,MurA RA (%),MurA [6],92%
same,remaining activity at 100 µM,MurA [7],92%
"CN1C(=O)C=CC1=O [Compound 38, CN1C(=O)C=CC1=O]",remaining activity at 100 µM,CatB [1],91%
same,GSH half-life,[2]; [8],< 0.1 h
same,RA,[3],5%
same,CatB RA (%),CatB [4],91%
same,"Reactivity, Experimental ln(k) vs GSH",[5],1.936
same,MurA RA (%),MurA [6],1%
same,remaining activity at 100 µM,MurA [7],1%
"O=C1C=CC(=O)N1c1ccccc1 [Compound 41, O=C1C=CC(=O)N1c1ccccc1]",remaining activity at 100 µM,CatB [1],82%
same,GSH half-life,[2]; [8],< 0.1 h
same,RA,[3],1%
same,CatB RA (%),CatB [4],82%
same,"Reactivity, Experimental ln(k) vs GSH",[5],1.936
same,experimental activity class against MurA,MurA [6],experimental MurA actives
same,MurA RA (%),MurA [6],1%
same,remaining activity at 100 µM,MurA [7],0.8%
"C=CC(=O)N(C)C [Compound 29, C=CC(=O)N(C)C]",remaining activity at 100 µM,CatB [1],75%
same,GSH half-life,[2]; [8],127 h
same,RA,[3],75%
same,CatB RA (%),CatB [4],75%
same,"Reactivity, Experimental ln(k) vs GSH",[5],-5.211
same,MurA RA (%),MurA [6],95%
same,remaining activity at 100 µM,MurA [7],95%
"C/C=C/C(=O)OC [Compound 26, C/C=C/C(=O)OC]",remaining activity at 100 µM,CatB [1],97%
same,GSH half-life,[2]; [8],20.8 h
same,RA,[3],68%
same,CatB RA (%),CatB [4],97%
same,"Reactivity, Experimental ln(k) vs GSH",[5],-3.401
same,MurA RA (%),MurA [6],41%
same,remaining activity at 100 µM,MurA [7],41%
"O=C(CBr)c1ccccc1 [Compound 45, O=C(CBr)c1ccccc1]",remaining activity at 100 µM,CatB [1],27%
same,GSH half-life,[2]; buffer,< 0.1 h
same,MAO-A inhibition (experimental),[3],found to inhibit MAO-A activity
same,RA,[3],39%
same,CatB RA (%),CatB [4],27%
same,"Reactivity, Experimental ln(k) vs GSH",[5],1.936
same,MurA RA (%),MurA [6],2%
same,remaining activity at 100 µM,MurA [7],2%
"CC(Br)C(=O)Nc1cc(C(F)(F)F)cc(C(F)(F)F)c1 (stereo not drawn) [Compound 50, CC(Br)C(=O)Nc1cc(C(F)(F)F)cc(C(F)(F)F)c1]",remaining activity at 100 µM,CatB [1],91%
same,GSH half-life,[2]; [8],95.2 h
same,RA,[3],83%
same,CatB RA (%),CatB [4],91%
same,"Reactivity, Experimental ln(k) vs GSH",[5],-4.922
same,MurA RA (%),MurA [6],35%
same,remaining activity at 100 µM,MurA [7],35%
"O=C1C=CC(=O)N1C1CCCCC1 [Compound 40, O=C1C=CC(=O)N1C1CCCCC1]",remaining activity at 100 µM,CatB [1],89%
same,GSH half-life,[2]; [8],< 0.1 h
same,RA,[3],3%
same,CatB RA (%),CatB [4],89%
same,"Reactivity, Experimental ln(k) vs GSH",[5],1.936
same,MurA RA (%),MurA [6],1%
same,remaining activity at 100 µM,MurA [7],1%
"Cc1ccccc1NC(=O)CCl [Compound 47, Cc1ccccc1NC(=O)CCl]",remaining activity at 100 µM,CatB [1],86%
same,GSH half-life,[2]; [8],326 h
same,RA,[3],78%
same,CatB RA (%),CatB [4],86%
same,"Reactivity, Experimental ln(k) vs GSH",[5],-6.153
same,MurA RA (%),MurA [6],83%
same,remaining activity at 100 µM,MurA [7],83%
"CC#CC(=O)OCC [Compound 37, CC#CC(=O)OCC]",remaining activity at 100 µM,CatB [1],84%
same,GSH half-life,[2]; [8],16.9 h
same,RA,[3],84%
same,CatB RA (%),CatB [4],84%
same,"Reactivity, Experimental ln(k) vs GSH",[5],-3.194
same,MurA RA (%),MurA [6],82%
same,remaining activity at 100 µM,MurA [7],82%
"CCOC(=O)/C=C/c1ccccc1 [Compound 27, CCOC(=O)/C=C/c1ccccc1]",remaining activity at 100 µM,CatB [1],79%
same,GSH half-life,[2]; [8],48.2 h
same,RA,[3],97%
same,CatB RA (%),CatB [4],79%
same,"Reactivity, Experimental ln(k) vs GSH",[5],-4.242
same,MurA RA (%),MurA [6],92%
same,remaining activity at 100 µM,MurA [7],92%
"O=C1C=CC(=O)N1Cc1ccccc1 [Compound 39, O=C1C=CC(=O)N1Cc1ccccc1]",remaining activity at 100 µM,CatB [1],87%
same,GSH half-life,[2]; [8],< 0.1 h
same,MAO-A inhibition (experimental),[3],active
same,RA,[3],0%
same,CatB RA (%),CatB [4],87%
same,"Reactivity, Experimental ln(k) vs GSH",[5],1.936
same,MurA RA (%),MurA [6],2%
same,remaining activity at 100 µM,MurA [7],2%
"O=C1C=CCO1 [Compound 43, O=C1C=CCO1]",remaining activity at 100 µM,CatB [1],99%
same,GSH half-life,[2]; [8],194 h
same,RA,[3],99%
same,CatB RA (%),CatB [4],99%
same,"Reactivity, Experimental ln(k) vs GSH",[5],-5.634
same,MurA RA (%),MurA [6],75%
same,remaining activity at 100 µM,MurA [7],75%
"COc1cc(NC(=O)CCl)cc(OC)c1 [Compound 51, COc1cc(NC(=O)CCl)cc(OC)c1]",remaining activity at 100 µM,CatB [1],87%
same,GSH half-life,[2]; [8],22.9 h
same,RA,[3],69%
same,CatB RA (%),CatB [4],87%
same,"Reactivity, Experimental ln(k) vs GSH",[5],-3.498
same,MurA RA (%),MurA [6],61%
same,remaining activity at 100 µM,MurA [7],61%
